“And” between values parts separate entries of the source, which are not always exact repeats. Equal values may be shown once. Inconclusive results and toxic doses are left out. The calls were made as follows: active = survival T/C of 150% or more; inactive = T/C below 125% in these data.
Test system: CD2F1 mice, L1210 leukemia ip, survival T/C
Assay: NCI In Vivo Anticancer Drug Screen. Data for tumor model L1210 Leukemia (intraperitoneal) in CD2F1 (CDF1) mice
Details: endpoint: mean survival time, higher = longer survival
In short: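 Compound-dosed mice with transplantable tumor versus matched vehicle controls; endpoint ratio T/C reported.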

[1] = dose: 100.0 mg/kg/injection, schedule: Q01DX009 (ip), vehicle: saline
[2] = dose: 200.0 mg/kg/injection, schedule: Q01DX009 (ip), vehicle: saline
[3] = dose: 400.0 mg/kg/injection, schedule: Q01DX009 (ip), vehicle: saline
[4] = dose: 50.0 mg/kg/injection, schedule: Q01DX009 (ip), vehicle: Klucel (hydroxypropylcellulose) (HPC)
[5] = dose: 100.0 mg/kg/injection, schedule: Q01DX009 (ip), vehicle: Klucel (hydroxypropylcellulose) (HPC)
[6] = dose: 200.0 mg/kg/injection, schedule: Q01DX009 (ip), vehicle: Klucel (hydroxypropylcellulose) (HPC)
[7] = dose: 100.0 mg/kg/injection, schedule: Q01DX009 (ip), vehicle: saline with Tween-80
[8] = dose: 100.0 mg/kg/injection, schedule: Q04DX003 (ip), vehicle: saline with Tween-80
[9] = dose: 200.0 mg/kg/injection, schedule: Q01DX009 (ip), vehicle: saline with Tween-80
[10] = dose: 400.0 mg/kg/injection, schedule: Q01DX009 (ip), vehicle: saline with Tween-80
[11] = dose: 12.5 mg/kg/injection, schedule: Q01DX009 (ip), vehicle: saline with Tween-80
[12] = dose: 25.0 mg/kg/injection, schedule: Q01DX009 (ip), vehicle: saline with Tween-80
[13] = dose: 200.0 mg/kg/injection, schedule: Q04DX003 (ip), vehicle: saline with Tween-80
[14] = dose: 400.0 mg/kg/injection, schedule: Q04DX003 (ip), vehicle: saline with Tween-80
[15] = dose: 25.0 mg/kg/injection, schedule: Q01DX001 (ip), vehicle: saline with Tween-80
[16] = dose: 50.0 mg/kg/injection, schedule: Q01DX001 (ip), vehicle: saline with Tween-80
[17] = dose: 100.0 mg/kg/injection, schedule: Q01DX001 (ip), vehicle: saline with Tween-80
[18] = dose: 50.0 mg/kg/injection, schedule: Q01DX009 (ip), vehicle: saline with Tween-80

Measured: T/C

Cc1ccn(C)c(=O)c1
inactive: [1] 103 % of control | [2] 104 % of control | [3] 101 % of control

COc1ccc(OC)cc1
inactive: dose: 100.0 mg/kg/injection, schedule: Q01DX001 (ip), vehicle: other 103 % of control | dose: 200.0 mg/kg/injection, schedule: Q01DX001 (ip), vehicle: other 94 % of control | dose: 400.0 mg/kg/injection, schedule: Q01DX001 (ip), vehicle: other 101 % of control

Cc1cc(Br)cc(Br)c1OCC(=O)O
inactive: [4] 96 % of control | [5] 93 % of control | [6] 96 % of control

Cc1ccc2c(c1Oc1ccc(S(N)(=O)=O)cc1)C(=O)c1ccccc1C2=O
inactive: [7] 103 % of control | dose: 100.0 mg/kg/injection, schedule: Q04DX003 (ip), vehicle: saline sonified 88 % of control | [8] 90 % of control | [9] 101 % of control | [10] 97 % of control | dose: 400.0 mg/kg/injection, schedule: Q04DX003 (ip), vehicle: saline sonified 107 % of control

Nc1nc(N)c2c(=O)c(CNc3ccc(C(=O)NC(CCC(=O)O)C(=O)O)cc3)c[nH]c2n1 (stereo unspecified)
inactive: dose: 0.25 mg/kg/injection, schedule: Q01DX005 (ip), vehicle: sodium bicarbonate 104 % of control | dose: 0.5 mg/kg/injection, schedule: Q01DX005 (ip), vehicle: sodium bicarbonate 119 % of control and 100 % of control | dose: 1.0 mg/kg/injection, schedule: Q01DX005 (ip), vehicle: sodium bicarbonate 113 % of control and 100 % of control | dose: 2.0 mg/kg/injection, schedule: Q01DX005 (ip), vehicle: sodium bicarbonate 98 % of control and 106 % of control | dose: 4.0 mg/kg/injection, schedule: Q01DX005 (ip), vehicle: sodium bicarbonate 91 % of control and 104 % of control | dose: 16.0 mg/kg/injection, schedule: Q01DX005 (ip), vehicle: sodium bicarbonate 98 % of control

CCC(NC(=O)OCc1ccccc1)C(=O)O (stereo unspecified)
inactive: [7] 88 % of control | [9] 90 % of control | [10] 90 % of control

Oc1ccc(C(c2ccccc2)(c2ccccc2)c2ccccc2)cc1
inactive: [7] 94 % of control | [9] 89 % of control | [10] 91 % of control

CCN(CC)CCCNC1=C(Cl)C(=O)c2ccccc2C1=O
inactive: dose: 6.25 mg/kg/injection, schedule: Q01DX009 (ip), vehicle: saline with Tween-80 100 % of control | [11] 94 % of control | [12] 103 % of control

N=c1c2c(C(N)=O)cn(C3OC(CO)C(O)C3O)c2ncn1N (stereo unspecified)
inactive: dose: 14.7 mg/kg/injection, schedule: Q01DX005 (ip), vehicle: water 110 % of control | dose: 22.0 mg/kg/injection, schedule: Q01DX005 (ip), vehicle: water 118 % of control | dose: 25.0 mg/kg/injection, schedule: Q01DX005 (ip), vehicle: water 117 % of control | dose: 33.0 mg/kg/injection, schedule: Q01DX005 (ip), vehicle: water 121 % of control | dose: 50.0 mg/kg/injection, schedule: Q01DX005 (ip), vehicle: water 120 % of control | dose: 75.0 mg/kg/injection, schedule: Q01DX005 (ip), vehicle: water 106 % of control | dose: 100.0 mg/kg/injection, schedule: Q01DX005 (ip), vehicle: water 98 % of control

Cc1ccc(C2(O)c3ccccc3C(=O)N2c2ccccc2C)cc1 (stereo unspecified)
inactive: [7] 100 % of control | [8] 104 % of control | [9] 93 % of control | [13] 104 % of control | [10] 102 % of control | [14] 106 % of control

C/C(=N/N(C)C)c1ccc2ccccc2c1
inactive: [11] 97 % of control | [15] 103 % of control | [12] 95 % of control | [16] 97 % of control | [17] 103 % of control

Cc1ccc(S(=O)(=O)Nc2ccc([N+](=O)[O-])cc2OS(=O)(=O)c2ccc(C)cc2)cc1
inactive: dose: 100.0 mg/kg/injection, schedule: Q04DX003 (ip), vehicle: alcohol 100 % of control | dose: 200.0 mg/kg/injection, schedule: Q04DX003 (ip), vehicle: alcohol 95 % of control | dose: 400.0 mg/kg/injection, schedule: Q04DX003 (ip), vehicle: alcohol 92 % of control

CCOC(=O)COC(=O)CN1C(=O)c2ccccc2C1=O
inactive: dose: 50.0 mg/kg/injection, schedule: Q01DX001 (ip), vehicle: water 93 % of control | dose: 100.0 mg/kg/injection, schedule: Q01DX001 (ip), vehicle: water 98 % of control | dose: 200.0 mg/kg/injection, schedule: Q01DX001 (ip), vehicle: water 104 % of control | dose: 400.0 mg/kg/injection, schedule: Q01DX001 (ip), vehicle: water 94 % of control

O=C(O)c1cc(=O)c2ccccc2[nH]1
inactive: dose: 50.0 mg/kg/injection, schedule: Q01DX001 (ip), vehicle: saline 93 % of control | dose: 100.0 mg/kg/injection, schedule: Q01DX001 (ip), vehicle: saline 93 % of control | dose: 200.0 mg/kg/injection, schedule: Q01DX001 (ip), vehicle: saline 91 % of control

C1=C(c2ccccc2)CC(/C=C/c2ccccc2)(c2ccccc2)C1c1ccccc1 (stereo unspecified)
inactive: [12] 92 % of control | [18] 98 % of control | [7] 90 % of control

C/C(=N/NC(=O)CC#N)c1ccccc1
inactive: [12] 98 % of control | [18] 98 % of control | [7] 98 % of control

CC(Br)C(=O)OC1C=CCCC1 (stereo unspecified)
inactive: [18] 97 % of control | [7] 101 % of control

O=C(OCC1OC([Se])C(OC(=O)c2ccccc2)C(OC(=O)c2ccccc2)C1OC(=O)c1ccccc1)c1ccccc1.[CH3][Sb][CH3] (stereo unspecified)
inactive: [4] 100 % of control | [5] 103 % of control | [6] 100 % of control

CN1CCC23CC=CCC2C1Cc1ccc([N+](=O)[O-])cc13 (stereo unspecified)
inactive: dose: 6.25 mg/kg/injection, schedule: Q01DX001 (ip), vehicle: saline with Tween-80 103 % of control | dose: 12.5 mg/kg/injection, schedule: Q01DX001 (ip), vehicle: saline with Tween-80 105 % of control | [15] 105 % of control

COc1ccc(C(=O)O)c([N+](=O)[O-])c1
inactive: [8] 98 % of control | [13] 98 % of control | [14] 98 % of control

O=C1c2ccccc2C(=O)N1Cc1ccc([N+](=O)[O-])cc1Cl
inactive: [18] 87 % of control | [7] 98 % of control | [9] 94 % of control

O=C1/C(=C\c2ccc(Cl)cc2)SC(=S)N1/N=C/c1ccc(Cl)cc1
inactive: [15] 97 % of control | [16] 94 % of control | [17] 90 % of control | dose: 200.0 mg/kg/injection, schedule: Q01DX001 (ip), vehicle: saline with Tween-80 87 % of control

CCOC(=O)Nc1cc(NCCc2ccccc2)c2[nH]cnc2n1
inactive: dose: 100.0 mg/kg/injection, schedule: Q01DX001 (ip), vehicle: Klucel (hydroxypropylcellulose) (HPC) 90 % of control | dose: 200.0 mg/kg/injection, schedule: Q01DX001 (ip), vehicle: Klucel (hydroxypropylcellulose) (HPC) 87 % of control | dose: 400.0 mg/kg/injection, schedule: Q01DX001 (ip), vehicle: Klucel (hydroxypropylcellulose) (HPC) 95 % of control

O=S(=O)(F)c1cc(Cl)c(O)c(S(=O)(=O)F)c1
inactive: dose: 25.0 mg/kg/injection, schedule: Q01DX009 (ip), vehicle: Klucel (hydroxypropylcellulose) (HPC) 97 % of control | [4] 103 % of control | [5] 101 % of control

O=C(O)/C=C/c1ccccc1C(=O)O
inactive: [1] 103 % of control | [2] 101 % of control | [3] 101 % of control
